Results taken from ChEMBL document CHEMBL4699525, “Design and synthesis of new indanol-1,2,3-triazole derivatives as potent antitubercular and antimicrobial agents” (Bioorg Med Chem Lett, 2020).
Active and inactive are the calls of the source. The calls are words filed in the database; no cut-off is given here.

Columns and labels:
Bacillus cereus = assay: Antibacterial activity against Bacillus cereus assessed as inhibition of bacterial growth incubated for 24 hrs by agar well diffusion method; assay type: functional; further: test concentration or dose not given here
[1] = biological target: T1, Enoyl-[acyl-carrier-protein] reductase [NADH] (Mycobacterium tuberculosis) (UniProt P9WGR1); assay: Inhibition of InhA in Mycobacterium tuberculosis H37Rv assessed antitubercular activity by measuring inhibition of bacterial growth incubated for 7 days by MABA assay; settings: time 7.0 day
T1 sequence (whole entry): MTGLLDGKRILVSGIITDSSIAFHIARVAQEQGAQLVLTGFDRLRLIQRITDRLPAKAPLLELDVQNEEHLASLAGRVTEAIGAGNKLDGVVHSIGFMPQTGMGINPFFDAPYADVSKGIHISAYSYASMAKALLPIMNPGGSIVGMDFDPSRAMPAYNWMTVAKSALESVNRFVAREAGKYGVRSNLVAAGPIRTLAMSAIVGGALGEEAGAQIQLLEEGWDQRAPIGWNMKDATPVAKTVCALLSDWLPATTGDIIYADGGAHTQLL

Shigella boydii = assay: Antibacterial activity against Shigella boydii assessed as inhibition of bacterial growth incubated for 24 hrs by agar well diffusion method; assay type: functional; on DIZ: test concentration or dose not given here
Saccharomyces cerevisiae = assay: Antifungal activity against Saccharomyces cerevisiae assessed as inhibition of fungal growth incubated for 24 hrs by agar well diffusion method; assay type: functional; further: test concentration or dose not given here
Pseudomonas aeruginosa = assay: Antibacterial activity against Pseudomonas aeruginosa assessed as inhibition of bacterial growth incubated for 24 hrs by agar well diffusion method; assay type: functional; further: test concentration or dose not given here
Aspergillus niger = assay: Antifungal activity against Aspergillus niger assessed as inhibition of fungal growth incubated for 24 hrs by agar well diffusion method; assay type: functional; further: test concentration or dose not given here
Bacillus subtilis = assay: Antibacterial activity against Bacillus subtilis assessed as inhibition of bacterial growth incubated for 24 hrs by agar well diffusion method; assay type: functional; further: test concentration or dose not given here
Salmonella typhi = assay: Antibacterial activity against Salmonella typhi assessed as inhibition of bacterial growth incubated for 24 hrs by agar well diffusion method; assay type: functional; settings: Salmonella enterica subsp. enterica serovar Typhi
Klebsiella aerogenes = assay: Antibacterial activity against Enterobacter aerogenes assessed as inhibition of bacterial growth incubated for 24 hrs by agar well diffusion method; assay type: functional; further: test concentration or dose not given here
Escherichia coli = assay: Antibacterial activity against Escherichia coli assessed as inhibition of bacterial growth incubated for 24 hrs by agar well diffusion method; assay type: functional; further: test concentration or dose not given here
Candida albicans = assay: Antifungal activity against Candida albicans assessed as inhibition of fungal growth incubated for 24 hrs by agar well diffusion method; assay type: functional; on DIZ: test concentration or dose not given here
[2] = tested on: Salmonella enterica subsp. enterica serovar Abony; assay: Antibacterial activity against Salmonella abony assessed as inhibition of bacterial growth incubated for 24 hrs by agar well diffusion method; assay type: functional; further: test concentration or dose not given here
Staphylococcus aureus = assay: Antibacterial activity against Staphylococcus aureus assessed as inhibition of bacterial growth incubated for 24 hrs by agar well diffusion method; assay type: functional; further: test concentration or dose not given here

Compound | diameter of the inhibition zone (DIZ) (Bacillus cereus) | MIC [1] | diameter of the inhibition zone (DIZ) (Shigella boydii) | diameter of the inhibition zone (DIZ) (Saccharomyces cerevisiae) | diameter of the inhibition zone (DIZ) (Pseudomonas aeruginosa) | diameter of the inhibition zone (DIZ) (Aspergillus niger) | diameter of the inhibition zone (DIZ) (Bacillus subtilis) | diameter of the inhibition zone (DIZ) (Salmonella typhi) | diameter of the inhibition zone (DIZ) (Klebsiella aerogenes) | diameter of the inhibition zone (DIZ) (Escherichia coli) | diameter of the inhibition zone (DIZ) (Candida albicans) | diameter of the inhibition zone (DIZ) [2] | diameter of the inhibition zone (DIZ) (Staphylococcus aureus)
O=C(Cn1cc(COc2ccc3c(c2)CCC3)nn1)Nc1ccc(Br)cc1 | inactive | > 25 µM | 13 mm | 12 mm | 5 mm | inactive | inactive | inactive | 12 mm | inactive | inactive | inactive | inactive
Cc1ccc([N+](=O)[O-])cc1NC(=O)Cn1cc(COc2ccc3c(c2)CCC3)nn1 | inactive | > 25 µM | 9 mm | inactive | 9 mm | inactive | inactive | inactive | 12 mm | inactive | inactive | inactive | inactive
Cc1ccc(NC(=O)Cn2cc(COc3ccc4c(c3)CCC4)nn2)c(C)c1 | inactive | > 25 µM | 13 mm | inactive | inactive | inactive | inactive | inactive | inactive | inactive | inactive | inactive | inactive
CCc1ccc(NC(=O)Cn2cc(COc3ccc4c(c3)CCC4)nn2)cc1 | inactive | > 25 µM | 11 mm | inactive | inactive | inactive | inactive | inactive | inactive | inactive | inactive | inactive | inactive
Cc1ccc(NC(=O)Cn2cc(COc3ccc4c(c3)CCC4)nn2)cc1 | inactive | > 25 µM | inactive | inactive | inactive | inactive | inactive | inactive | inactive | inactive | 12 mm | inactive | 8 mm
Cc1ccccc1NC(=O)Cn1cc(COc2ccc3c(c2)CCC3)nn1 | inactive | > 25 µM | 11 mm | inactive | inactive | inactive | inactive | inactive | inactive | inactive | inactive | inactive | inactive
Clc1ccc(-n2cc(COc3ccc4c(c3)CCC4)nn2)cc1 | inactive | > 25 µM | inactive | 8 mm | inactive | inactive | inactive | inactive | inactive | inactive | 10 mm | inactive | 8 mm
Cc1ccc(-n2cc(COc3ccc4c(c3)CCC4)nn2)cc1 | inactive | > 25 µM | inactive | inactive | inactive | inactive | inactive | inactive | inactive | inactive | 12 mm | inactive | inactive
COc1cccc(NC(=O)Cn2cc(COc3ccc4c(c3)CCC4)nn2)c1 | inactive | > 25 µM | 15 mm | inactive | inactive | inactive | inactive | inactive | inactive | inactive | inactive | inactive | inactive
O=C(Cn1cc(COc2ccc3c(c2)CCC3)nn1)Nc1ccc(Cl)cc1 | inactive | > 25 µM | inactive | 10 mm | inactive | inactive | inactive | inactive | inactive | inactive | 15 mm | inactive | 8 mm
O=C(Cn1cc(COc2ccc3c(c2)CCC3)nn1)Nc1ccc(F)cc1 | inactive | > 25 µM | 11 mm | inactive | inactive | inactive | inactive | inactive | inactive | inactive | 13 mm | inactive | 13 mm
